The test system of data set [1] is Plasmodium yoelii yoelii. Kind of data set: Antimalarial activity against Plasmodium yoelii 265 sporozoites in primary mice (Mus musculus) hepatocytes after 48 hrs. It counts as functional, organism-based. Conditions: 265 BY, Hepatocyte.
The nature of data set [2]: Cytotoxicity against primary mouse hepatocytes after 48 hrs by neutral red assay. It counts as cell-based, Hepatocyte. Conditions: read-out: TC50.
Data set [3] in a line: Selectivity index, ratio of TC50 for primary mice (Mus musculus) hepatocytes to IC50 for Plasmodium yoelii yoelii 265 BY liver stage sporozoites. Set-up: species or system Hepatocyte.
The subject of data set [4] is Plasmodium yoelii yoelii. Kind of data set: Antimalarial activity against Plasmodium yoelii 265 BY liver stage sporozoites in primary mice (Mus musculus) hepatocytes at 38.6 uM after 48 hrs. The class given is functional. Conditions: Hepatocyte.
In data set [5] the test system is Plasmodium yoelii yoelii. As to the kind of experiment: Antimalarial activity against Plasmodium yoelii 265 BY liver stage sporozoites in primary mice (Mus musculus) hepatocytes at 7.1 uM after 48 hrs. Conditions: Hepatocyte. It counts as functional, organism-based.

The source made the active and inactive calls. No cut-off for these calls is given here.

As to `COC1=C2[C@H]3NCC[C@]2(C[C@H](O)[C@@H]1O)c1c(ccc(OC)c1O)[C@@H]3O[C@@H]1O[C@H](CO)[C@@H](O)[C@H](O)[C@H]1O`, the IC50 in the data set on Plasmodium yoelii yoelii [1] was more than 390 µM. Further, the CC50 at 48 h in data set [2] was more than 390 µM.
As for `COC1=C2[C@H]3NCC[C@]2(C[C@H](O)[C@@H]1O)c1c(ccc(OC)c1O)[C@@H]3O`, in data set [3], the Ratio is recorded as 24.1. In the data set on Plasmodium yoelii yoelii [1], the concentration for half-maximal inhibition (IC50) was found to be 16.1 µM. The CC50 at 48 h in data set [2] turned out to be 388 µM.
With `COc1cc(NC(C)CCCN)c2ncccc2c1` (stereo unspecified) [PRIMAQUINE], in data set [3], the Ratio came out at 110. In the data set with Plasmodium yoelii yoelii [1], this compound displayed an IC50 of 0.64 µM. Also, at 38.6 µM the inhibition in vivo with Plasmodium yoelii yoelii [4] was 80%. Moreover, the CC50 at 48 h in data set [2] is 70.5 µM.
For `COC1=C2[C@@H]3Cc4ccc(OC)c(O)c4[C@]2(CCN3)C[C@H](O)[C@@H]1O` [SINOCOCULINE], the Ratio in data set [3] is reported as 13.8. This compound showed an IC50 in the data set with Plasmodium yoelii yoelii [1] of 4.5 µM. Moreover, the CC50 at 48 h in data set [2] worked out at 62.2 µM.
Turning to `COC1=C2[C@H]3NCC[C@]2(C[C@H](O)[C@@H]1O)c1c(ccc(OC)c1O)[C@H]3O` [TAZOPSINE], the Ratio in data set [3] was 14. Besides, inhibition with Plasmodium yoelii yoelii [1] was half-maximal at 3.1 µM (IC50). Further, in the data set on Plasmodium yoelii yoelii [5], the result was Active. For the same compound, in data set [2], the CC50 at 48 h is 43.7 µM.

Values taken from ChEMBL document CHEMBL1150333, “Isolation and antimalarial activity of new morphinan alkaloids on Plasmodium yoelii liver stage” (Bioorg Med Chem, 2008).
